Laboratory results taken from patent publication US7064122B2, “Pancreatic lipase inhibitor compounds, their synthesis and use” (OSI Pharmaceuticals, Inc., priority 2001, dated 2006).

Legend:
[1] = biological target: T1, type VI-S porcine pancreatic lipase (Sus scrofa, UniProt P00591); test: Pancreatic lipase assay (pH-stat titration, triolein substrate); type: biochemical; design: Ymax: unit not given here; conditions: for k / Ymax: 7.0 nM lipase, 700 nM inhibitor, pH 8.0; for k: k fitted for the 12.5 min after inhibitor addition, Y=Ymax*(1-exp(-k*X)); for Ymax: Ymax of the fit Y=Ymax*(1-exp(-k*X)); for inhibition at 0.7 µM: 12.5 min
T1 construct: purchased Sigma type VI-S (catalogue number not given)
T1 sequence (P00591 1-450): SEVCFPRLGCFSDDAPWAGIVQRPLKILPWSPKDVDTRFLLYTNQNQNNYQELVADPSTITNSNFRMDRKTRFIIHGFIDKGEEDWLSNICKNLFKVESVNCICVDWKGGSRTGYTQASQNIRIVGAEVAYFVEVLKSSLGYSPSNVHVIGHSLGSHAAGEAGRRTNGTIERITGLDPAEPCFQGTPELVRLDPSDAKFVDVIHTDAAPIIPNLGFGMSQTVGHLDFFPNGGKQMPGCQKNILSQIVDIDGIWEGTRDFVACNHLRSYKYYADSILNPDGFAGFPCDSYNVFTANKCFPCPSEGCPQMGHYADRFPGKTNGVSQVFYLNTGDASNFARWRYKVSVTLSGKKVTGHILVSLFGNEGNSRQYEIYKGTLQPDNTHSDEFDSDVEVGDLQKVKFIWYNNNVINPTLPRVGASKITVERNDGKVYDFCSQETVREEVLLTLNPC
Experimental: The use of a pancreatic lipase assay has been described in the literature (Hadvary, P. et al. Biochem. J. (1988) 256: 357-361; Hadvary, P. et al. Biochem. J. (1991) 266:2021-2027). Pancreatic lipase activity was measured using a 718 Stat Titrino (Brinkmann) programmed to maintain a pH of 8.0 using 0.1 N NaOH. The substrate mixture (pH 8) contained 1 mM taurochenodeoxycholate (Sigma), 9 mM taurodeoxycholate (Sigma), 0.1 mM cholesterol (Sigma), 1 mM phosphatidylcholine (Sigma), 1.5% BSA, 2 mM Tris base, 100 mM NaCl, 10 mM CaCl2, and 3% triolein (Sigma). The mixture (5 mL) was emulsified via sonication at room temperature, and added to the titration vessel with rapid stirring. The Stat Titrino was turned on and lipase (7.0 nM type VI-S porcine pancreatic lipase (Sigma) dissolved in PBS) was added to the vessel. After 10 min, inhibitor (700 nM dissolved in 100% DMSO) was added and the reaction continued for an additional 12.5 min. The k values were determined for the 12.5 min after the addition of the inhibitor using a one phase exponential association equation, Y=Ymax*(1−exp(−k*X)), k values for lipase alone were 0.0004±0.0001 sec. The k values for compounds disclosed herein are >0.0004±0.0001 sec.

Row | Molecule | k [1] | melting point | Ymax [1] | inhibition at 0.7 µM [1] [%]
1 | CCCCCCCCNc1nc2sc(C(=O)NCC(C)(C)C)c(C)c2c(=O)o1 [Entry 58] | 0.723 10-3.s-1 | 173 to 174.5 °C | – | –
2 | CCCCCCCCNC(=O)Nc1sc(C(=O)N2CCN(Cc3ccccc3)CC2)c(C)c1C(=O)O [Entry 37, 5-(4-Benzyl-piperazine-1-carbonyl)-4-methyl-2-(3-octyl-ureido)-thiophene-3-carboxylic acid] | 0.574 10-3.s-1 | 193.5 to 195 °C (dec.) | 0.211 | –
3 | CCCCCCCCOC(=O)c1sc2nc(OCCCCCCCC)oc(=O)c2c1C [Entry 9, 5-Methyl-2-octyloxy-4-oxo-4H-thieno[2,3-d][1,3]oxazine-6-carboxylic acid octyl ester] | 0.924 10-3.s-1 | 58.5 to 60.2 °C | 0.286 | –
4 | CCCCCCCCCCCCCCCCNc1nc2sc(C(=O)NCCCCCCCC)c(C)c2c(=O)o1 [Entry 26, 2-Hexadecylamino-5-methyl-4-oxo-4H-thieno[2,3-d][1,3]oxazine-6-carboxylic acid octylamide] | 1.709 10-3.s-1 | 146.3 to 147 °C | – | –
5 | CCCCCCCCNc1nc2sc(C(=O)N3CCC(Cc4ccccc4)CC3)c(C)c2c(=O)o1 [Entry 43, 6-(4-Benzyl-piperidine-1-carbonyl)-5-methyl-2-octylamino-thieno[2,3-d][1,3]oxazin-4-one] | 0.009 10-3.s-1 | 100 to 106 °C | – | –
6 | CCCCCCCOc1nc2sc(C(=O)OCc3ccccc3)c(C)c2c(=O)o1 [Entry 8, 2-Heptyloxy-5-methyl-4-oxo-4H-thieno[2,3-d][1,3]oxazine-6-carboxylic acid benzyl ester] | 1.052 10-3.s-1 | – | – | –
7 | 2-Hexadecyloxy-5-methyl-4-oxo-4H-thieno[2,3-d][1,3]oxazine-6-carboxylic acid benzyl ester [Entry 7] | 0.779 10-3.s-1 | – | – | –
8 | CCCCCCCCNc1nc2sc(C(=O)N(CC)CCc3ccccn3)c(C)c2c(=O)o1 [Entry 51, 5-Methyl-2-octylamino-4-oxo-4H-thieno[2,3-d][1,3]oxazine-6-carboxylic acid ethyl-(2-pyridin-2-yl-ethyl)-amide] | 0.012 10-3.s-1 | – | – | –
9 | CCCCCCCCNC(=O)c1sc2nc(OCCCCCCCC)oc(=O)c2c1C [Entry 15, 5-Methyl-2-octyloxy-4-oxo-4H-thieno[2,3-d][1,3]oxazine-6-carboxylic acid octylamide] | 1.548 10-3.s-1 | – | – | –
10 | CCCCCCCCNc1nc2sc(C(=O)NCCCOc3ccccc3)c(C)c2c(=O)o1 [Entry 44, 5-Methyl-2-octylamino-4-oxo-4H-thieno[2,3-d][1,3]oxazine-6-carboxylic acid (3-phenoxy-propyl)-amide] | 1.667 10-3.s-1 | – | – | –
11 | CCCCCCCCNc1nc2sc(C(=O)NCc3ccco3)c(C)c2c(=O)o1 [Entry 52, 5-Methyl-2-octylamino-4-oxo-4H-thieno[2,3-d][1,3]oxazine-6-carboxylic acid (furan-2-ylmethyl)-amide] | 1.257 10-3.s-1 | – | – | –
12 | CCCCCCCCNc1nc2sc(C(=O)N3CCN(Cc4ccccc4)CC3)c(C)c2c(=O)o1 [Entry 40, 6-(4-Benzyl-piperazine-1-carbonyl)-5-methyl-2-octylamino-thieno[2,3-d][1,3]oxazin-4-one] | 0.110 10-3.s-1 | – | – | –
13 | CCCCCCCCOc1nc2sc(C(=O)O)c(C)c2c(=O)o1 [Entry 11, 5-Methyl-2-octyloxy-4-oxo-4H-thieno[2,3-d][1,3]oxazine-6-carboxylic acid] | 0.547 10-3.s-1 | – | – | –
14 | CCCCCCCCOc1nc2scc(C)c2c(=O)o1 [Entry 23, 5-Methyl-2-octyloxy-thieno[2,3-d][1,3]oxazin-4-one] | 0.893 10-3.s-1 | – | – | –
15 | CCCCCCCCNc1nc2sc(C(=O)NCCCCCC)c(C)c2c(=O)o1 [Entry 27, 5-Methyl-2-octylamino-4-oxo-4H-thieno[2,3-d][1,3]oxazine-6-carboxylic acid hexylamide] | 2.577 10-3.s-1 | – | – | –
16 | CCCCCCCCNc1nc2sc(C(=O)NCCCN(C)C)c(C)c2c(=O)o1 [Entry 46] | 0.062 10-3.s-1 | – | – | –
17 | CCCCCCCNC(=O)N(CCCCCCC)c1nc2sc(C(=O)OCc3ccccc3)c(C)c2c(=O)o1 [Entry 14, 2-(1,3-Diheptyl-ureido)-5-methyl-4-oxo-4H-thieno[2,3-d][1,3]oxazine-6-carboxylic acid benzyl ester] | 0.459 10-3.s-1 | – | – | –
18 | CCCCCCCCOC(=O)c1sc2nc(Nc3ccc(Oc4ccccc4)cc3)oc(=O)c2c1C [Entry 19, 5-Methyl-4-oxo-2-(4-phenoxy-phenylamino)-4H-thieno[2,3-d][1,3]oxazine-6-carboxylic acid octyl ester] | 0.981 10-3.s-1 | – | – | –

The remaining lines, values ahead:

Row | k [1] | melting point | Ymax [1] | inhibition at 0.7 µM [1] [%] | Molecule
19 | – | 55 to 58 °C | – | – | CCCCCCCCCCc1cc2c(=O)oc(Oc3ccc(CCCC)cc3)nc2s1 [Entry 102, 2-(4-Butyl-phenoxy)-6-decyl-thieno[2,3-d][1,3]oxazin-4-one]
20 | 0.422 10-3.s-1 | 29 to 31 °C | 0.982 | – | CCCCCCCCOc1nc2sc(CCCCCCC)c(C)c2c(=O)o1 [Entry 74, 6-Heptyl-5-methyl-2-octyloxy-thieno[2,3-d][1,3]oxazin-4-one]
21 | 0.247 10-3.s-1 | 89 to 91 °C | 0.460 | – | CCCCCCCCNc1nc2sc(CCCCCCC)cc2c(=O)o1 [Entry 61, 6-Heptyl-2-octylamino-thieno[2,3-d][1,3]oxazin-4-one]
22 | 1.027 10-3.s-1 | 159 to 163 °C | 0.118 | – | CCCCCCCCNc1nc2sc(C(=O)NCc3ccc(OC)c(OC)c3)c(C)c2c(=O)o1 [Entry 66, 5-Methyl-2-octylamino-4-oxo-4H-thieno(2,3-d)(1,3)oxazine-6-carboxylic acid (2-(3,4-dimethoxy-phenyl)-methyl)-amide]
23 | – | – | – | 15 | CCCCCCCCCCc1cc2c(=O)oc(OC(C)CCCCCC)nc2s1 (stereo not shown) [Entry 90, 6-Decyl-2-(1-methylheptyloxy)thieno[2,3-d][1,3]oxazin-4-one]
24 | 0.392 10-3.s-1 | – | 0.482 | – | CCCCCCCCOc1nc2sc(Cc3ccccc3)cc2c(=O)o1 [Entry 77, 6-Benzyl-2-octyloxythieno[2,3-d][1,3]oxazin-4-one]
25 | – | – | – | 73.6 | CCCCCCCCCCc1cc2c(=O)oc(OCCCCCCCC)nc2s1 [Entry 86, 6-Decyl-2-octyloxythieno[2,3-d][1,3]oxazin-4-one]
26 | – | – | – | 83 | CCCCCCCCc1cc2c(=O)oc(OCCCCCC)nc2s1 [Entry 94]
27 | 1.288 10-3.s-1 | – | 0.161 | – | CCCCCCCCOc1nc2sc(C(C)C)cc2c(=O)o1 [Entry 76, 6-Isopropyl-2-octyloxy-thieno[2,3-d][1,3]oxazin-4-one]
28 | 1.315 10-3.s-1 | – | 0.126 | 17.9 | CCCCCCCCOc1nc2sc(C(C)CC(C)(C)C)cc2c(=O)o1 (stereo not shown) [Entry 78, 2-Octyloxy-6-(1,3,3-trimethyl-butyl)-thieno[2,3-d][1,3]oxazin-4-one]
29 | – | – | – | 74.2 | CCCCCCCCCCCCc1cc2c(=O)oc(OCCCCCCCC)nc2s1 [Entry 88, 6-Dodecyl-2-octyloxy-thieno[2,3-d][1,3]oxazin-4-one]
30 | 1.999 10-3.s-1 | – | 0.140 | – | CCCCCCCCNc1nc2sc(C(=O)NCCOc3ccccc3)c(C)c2c(=O)o1 [Entry 70, 5-Methyl-2-octylamino-4-oxo-4H-thieno(2,3-d)(1,3)oxazine-6-carboxylic acid (2-phenoxy-ethyl)-amide]
31 | 3.033 10-3.s-1 | – | 0.029 | 71.3 | CCCCCCCCOc1nc2sc(CCCCCC)cc2c(=O)o1 [Entry 84, 6-Hexyl-2-octyloxythieno[2,3-d][1,3]oxazin-4-one]
32 | – | 38 to 41 °C | – | – | CCCCCCCCCCc1cc2c(=O)oc(OCCOC)nc2s1 [Entry 96, 6-Decyl-2-(2-methoxy-ethoxy)-thieno[2,3-d][1,3]oxazin-4-one]
33 | – | – | – | -14.1 | CCCCCCC(C)Oc1nc2sc(C(=O)OCc3ccccc3)c(C)c2c(=O)o1 (stereo not shown) [Entry 89, 5-Methyl-2-(1-methylheptyloxy)-4-oxo-4H-thieno[2,3-d][1,3]oxazine-6-carboxylic acid benzyl ester]
34 | 0.176 10-3.s-1 | – | 3.917 | – | CCCCCCCCNc1nc2sc(C(=O)N3CCN(CC(=O)NC(C)C)CC3)c(C)c2c(=O)o1 [Entry 64, N-Isopropyl-2-(4-(5-methyl-2-octylamino-4-oxo-4H-thieno(2,3-d)(1,3)oxazine-6-carbonyl)-piperazin-1-yl)-acetamide]
